In patent publication US12600725B2 (Memorial Sloan-Kettering Cancer Center, priority 2013, dated 2026):

Legend:
[1] = biological target: Hsp90α (Homo sapiens, UniProt P07900); test: biochemical; conditions: FP competition, 6 nM Cy3B-GM, 10 nM protein, 4° C. for 24 h
[2] = biological target: Grp94 (Canis lupus familiaris, UniProt P41148); conditions: read-out: Grp94; FP competition, 6 nM Cy3B-GM, 10 nM protein, 4° C. for 24 h
[3] = biological target: Hsp90β (Homo sapiens, UniProt P08238)
Sequence of Hsp90β (P08238 whole entry): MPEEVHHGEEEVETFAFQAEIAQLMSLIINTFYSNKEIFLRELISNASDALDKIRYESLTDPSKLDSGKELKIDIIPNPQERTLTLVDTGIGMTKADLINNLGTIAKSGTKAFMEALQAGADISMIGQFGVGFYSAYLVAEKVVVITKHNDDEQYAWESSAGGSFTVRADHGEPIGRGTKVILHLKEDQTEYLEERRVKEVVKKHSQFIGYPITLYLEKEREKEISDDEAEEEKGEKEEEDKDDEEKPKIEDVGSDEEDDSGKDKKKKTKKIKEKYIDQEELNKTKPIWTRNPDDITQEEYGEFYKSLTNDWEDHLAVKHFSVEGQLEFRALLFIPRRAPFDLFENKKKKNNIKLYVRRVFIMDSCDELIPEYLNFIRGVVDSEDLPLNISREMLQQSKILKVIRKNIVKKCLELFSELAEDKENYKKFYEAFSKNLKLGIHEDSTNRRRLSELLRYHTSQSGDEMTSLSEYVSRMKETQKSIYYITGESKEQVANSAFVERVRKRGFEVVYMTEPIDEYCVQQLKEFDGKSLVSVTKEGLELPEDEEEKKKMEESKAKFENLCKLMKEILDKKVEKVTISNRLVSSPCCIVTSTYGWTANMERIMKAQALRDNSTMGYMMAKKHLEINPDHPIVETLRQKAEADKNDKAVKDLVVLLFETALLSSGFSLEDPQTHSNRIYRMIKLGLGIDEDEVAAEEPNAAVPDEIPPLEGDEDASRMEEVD

Sequence of Grp94 (P41148 with tags, fused parts or gaps DELINS287-327GGGG): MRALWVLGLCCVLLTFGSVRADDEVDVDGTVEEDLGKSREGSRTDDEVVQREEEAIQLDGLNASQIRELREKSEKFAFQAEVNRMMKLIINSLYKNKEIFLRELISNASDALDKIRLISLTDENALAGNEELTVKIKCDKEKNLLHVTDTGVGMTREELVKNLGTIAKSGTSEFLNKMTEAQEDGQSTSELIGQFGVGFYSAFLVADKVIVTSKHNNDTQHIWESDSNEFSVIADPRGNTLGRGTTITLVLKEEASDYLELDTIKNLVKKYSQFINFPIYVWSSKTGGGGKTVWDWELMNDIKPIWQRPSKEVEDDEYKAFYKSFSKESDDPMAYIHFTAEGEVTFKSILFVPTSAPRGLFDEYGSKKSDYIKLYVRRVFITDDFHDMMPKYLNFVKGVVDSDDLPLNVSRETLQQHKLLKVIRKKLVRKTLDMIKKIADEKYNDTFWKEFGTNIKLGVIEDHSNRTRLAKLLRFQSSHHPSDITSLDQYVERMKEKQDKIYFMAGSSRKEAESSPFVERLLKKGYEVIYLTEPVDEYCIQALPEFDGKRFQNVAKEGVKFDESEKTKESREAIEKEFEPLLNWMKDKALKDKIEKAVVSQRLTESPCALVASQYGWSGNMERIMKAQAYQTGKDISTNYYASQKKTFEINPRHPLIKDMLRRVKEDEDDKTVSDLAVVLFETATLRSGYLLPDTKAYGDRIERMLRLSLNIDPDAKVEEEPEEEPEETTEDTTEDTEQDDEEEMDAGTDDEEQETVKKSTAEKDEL

Row | IC50 [1] [µM] | IC50 [2] [µM] | IC50 [3] [µM] | Structure (SMILES)
1 | > 50 | 5.8 |  | CC(C)NCCCn1c(Sc2cc(Cl)cc(C#CCO)c2)nc2c(N)ncnc21 [HJP-VI-58, 3-(3-((6-amino-9-(3-(isopropylamino)propyl)-9H-purin-8-yl)thio)-5-chlorophenyl)prop-2-yn-1-ol]
2 | > 50 | 7.4 |  | CC(O)C#Cc1cc(Cl)cc(Sc2nc3c(N)ncnc3n2CCCNC(C)C)c1 (stereo not drawn) [HJP-VI-59, 4-(3-((6-amino-9-(3-(isopropylamino)propyl)-9H-purin-8-yl)thio)-5-chlorophenyl)but-3-yn-2-ol]
3 | > 50 | 0.28 |  | CC(C)=Cc1cc(Cl)cc(Sc2nc3c(N)ncnc3n2CCCNC(C)C)c1 [HJP-VI-62, 8-((3-chloro-5-(2-methylprop-1-en-1-yl)phenyl)thio)-9-(3-(isopropylamino)propyl)-9H-purin-6-amine]
4 | > 50 | 0.24 |  | CC(C)NCCCn1c(Sc2cc(Cl)cc(/C=C/C3CC3)c2)nc2c(N)ncnc21 [HJP-VI-64, (E)-8-((3-chloro-5-(2-cyclopropylvinyl)phenyl)thio)-9-(3-(isopropylamino)propyl)-9H-purin-6-amine]
5 | > 5 | 1.9 |  | C#CCCCn1c(Sc2cc(Cl)nc(Cl)c2)nc2c(N)ncnc21 [HJP-VI-66, 8-((2,6-dichloropyridin-4-yl)thio)-9-(pent-4-yn-1-yl)-9H-purin-6-amine]
6 | 14.2 | 0.102 |  | CC(C)NCCCn1c(Sc2cc(Cl)cc(/C=C/C(C)(C)C)c2)nc2c(N)ncnc21 [HJP-VI-72, (E)-8-((3-chloro-5-(3,3-dimethylbut-1-en-1-yl)phenyl)thio)-9-(3-(isopropylamino)propyl)-9H-purin-6-amine]
7 | 9.2 | > 5 |  | CC(C)NCCCn1c(Sc2ccc(Cl)cc2Cl)nc2c(N)nccc21 [HJP-VI-101, 2-((2,4-dichlorophenyl)thio)-1-(3-(isopropylamino)propyl)-1H-imidazo[4,5-c]pyridin-4-amine]
8 | > 50 | > 5 |  | C#CCCn1cnc(N)c2nc(Sc3cc(Cl)cc(Cl)c3)nc1-2 [PDP-I-14-N3, 3-(But-3-yn-1-yl)-8-((3,5-dichlorophenyl)thio)-3H-purin-6-amine]
9 | > 100 | > 5 |  | C#CCCCn1cnc(N)c2nc(Sc3cccc4ccccc34)nc1-2 [PDP-I-16-N3]
10 | > 50 | 11.1 |  | C#CCCCn1cnc(N)c2nc(Sc3ccc(Cl)c(Cl)c3)nc1-2 [PDP-I-25-N3]
11 | > 50 | > 5 |  | C#CCCCn1cnc(N)c2nc(Sc3ccc(-n4cccc4)cc3)nc1-2 [PDP-I-51-N3]
12 | > 50 | > 10 |  | C#CCCCn1c(Sc2ccc(-n3cccc3)cc2)nc2c(N)ncnc21 [PDP-I-51-N9]
13 | > 50 | > 10 |  | C#CCCCn1cnc(N)c2nc(Sc3ccc(Br)cc3CC)nc1-2 [PDP-I-54-N3]
14 | > 50 | > 5 |  | C#CCCCn1c(Sc2cc(Br)cc3ccn(Cc4ccc(OC)cc4)c23)nc2c(N)ncnc21 [PDP-I-55-N9]
15 | > 50 | > 10 |  | C#CCCCn1cnc(N)c2nc(Sc3cn(Cc4ccc(OC)cc4)c4ncc(Br)cc34)nc1-2 [PDP-I-58-N3]
16 | > 50 | > 10 |  | C#CCCCn1c(Sc2cn(Cc3ccc(OC)cc3)c3ncc(Br)cc23)nc2c(N)ncnc21 [PDP-I-58-N9]
17 | > 50 | > 5 |  | C#CCCCn1cnc(N)c2nc(Sc3ccc(Cl)c4ccccc34)nc1-2 [PDP-I-77-N3]
18 | > 50 | > 2 |  | C#CCCCn1c(Sc2ccc(Cl)c3ccccc23)nc2c(N)ncnc21 [PDP-I-77-N9]
19 | > 50 | > 5 |  | C#CCCCn1cnc(N)c2nc(Sc3cc(Cl)cc4c(Cl)ccnc34)nc1-2 [PDP-I-79-N3]
20 | 110 ± 20 | 3.2 ± 0.4 | 92 ± 2 | CCCCn1c(Cc2ccc(OC)cc2)nc2c(N)ncnc21 [PU1]

Row | IC50 [1] [µM] | IC50 [2] [µM] | IC50 [3] [µM] | Structure (SMILES)
21 | > 100 | 1.13 ± 0.2 | > 100 | C#CCCCn1c(Sc2ccc(OC)cc2)nc2c(N)ncnc21 [PU-H1]
22 |  | 0.5 ± 0.2 | 6.5 ± 2.3 | C#CCCCn1c(Sc2cc(Cl)ccc2C(F)(F)F)nc2c(N)ncnc21 [PU-H2]
23 |  | 6.2 ± 2.5 | 110 ± 120 | C#CCCCn1c(Sc2ccccc2OC)nc2c(N)ncnc21 [PU-H5]
24 | > 100 | 0.35 ± 0.05 | > 100 | C#CCCCn1c(Sc2ccccc2Cl)nc2c(N)ncnc21 [PU-H6]
25 | > 100 | 1.5 ± 0.2 |  | C#CCCCn1c(Sc2ccc(Cl)cc2)nc2c(N)ncnc21 [PU-H7]
26 | 47.4 ± 2.2 | 34.5 ± 3.5 | 22.4 ± 2.8 | C#CCCCn1c(Sc2ccc(OC)cc2OC)nc2c(N)ncnc21 [PU-H8]
27 | > 100 | 1.4 ± 0.2 | > 100 | C#CCCCn1c(Sc2ccccc2OC(F)(F)F)nc2c(N)ncnc21 [PU-H9]
28 | > 100 | 185 ± 15 | > 100 | C#CCCCn1cnc(N)c2nc(Sc3cc(C)ccc3C)nc1-2 [PU-H29]
29 | > 100 | 29 ± 9 | > 100 | C#CCCCn1c(Sc2ccccc2CO)nc2c(N)ncnc21 [PU-H34]
30 | > 100 | > 100 | > 100 | C#CCCCn1cnc(N)c2nc(Sc3ccccc3CO)nc1-2 [PU-H35]
31 | > 250 | 2.1 ± 0.56 | > 250 | C#CCCCn1c(Sc2c(C)cc(C)cc2C)nc2c(N)ncnc21 [PU-H36]
32 | > 100 |  | > 100 | C#CCCCn1cnc(N)c2nc(Sc3ccccc3Cl)nc1-2 [PU-H47]
33 | 52.2 | 0.373 |  | CN1CCN(CCn2c(Sc3cc(Cl)cc(Cl)c3)nc3c(N)ncnc32)CC1 [SO-III-39A, 8-((3,5-dichlorophenyl)thio)-9-(2-(4-methylpiperazin-1-yl)ethyl)-9H-purin-6-amine]
34 | 39.9 | 0.89 |  | COC(C)CNCCn1c(Sc2cc(Cl)cc(Cl)c2)nc2c(N)ncnc21 (stereo not drawn) [SO-III-75A, 8-((3,5-dichlorophenyl)thio)-9-(2-((2-methoxypropyl)amino)ethyl)-9H-purin-6-amine]
35 | > 10 | 0.203 |  | Nc1ncnc2c1nc(Sc1cc(Cl)cc(Cl)c1)n2CCCn1ccnc1 [SO-III-103A, 9-(3-(1H-imidazol-1-yl)propyl)-8-((3,5-dichlorophenyl)thio)-9H-purin-6-amine]
36 | > 50 | 2.59 |  | CC(C)NCCCn1c(Sc2cc(Cl)cc(Cl)c2)nc2c(N)nccc21 [SO-III-154, 2-((3,5-dichlorophenyl)thio)-1-(3-(isopropylamino)propyl)-1H-imidazo[4,5-c]pyridin-4-amine]
37 | > 50 | > 5 |  | CC(C)NCCCn1c(Sc2cccc3ccccc23)nc2c(N)nccc21 [SO-IV-03, 1-(3-(isopropylamino)propyl)-2-(naphthalen-1-ylthio)-1H-imidazo[4,5-c]pyridin-4-amine]
38 | > 100 | 25 |  | Cc1ccc(Sc2nc3c(N)ncn(CCCNC(C)C)c-3n2)c(C)c1 [WS-11, 8-((2,4-Dimethylphenyl)thio)-3-(3-(isopropylamino)propyl)-3H-purin-6-amine]
39 | 8.56 | 2.43 |  | CC(C)NCCCn1c(Sc2cc(C(F)(F)F)cc(C(F)(F)F)c2)nc2c(N)ncnc21 [WS-14, 8-((3,5-Bis(trifluoromethyl)phenyl)thio)-9-(3-(isopropylamino)propyl)-9H-purin-6-amine]
